# What was measured:
# [1] = test system: non-inoculated Washington oranges; assay: Decay percentage of non-inoculated Washington oranges during storage; type: in vivo, Washington navel oranges
# Experimental: Non-inoculated Washington navel oranges were divided into […] groups which were treated as follows: (a) no treatment; (b) dipped in 50% Ethanol; (c) dipped in 0.2% Citral in 0.02% L-77 Emulsifier (aqueous emulsion); (d) dipped in 0.2% Citral in 50% Ethanol; and (e) dipped in a 0.2% aqueous Imazalil solution.
# Oranges were then stored for four months at 15° C. in 50-75% relative humidity and the percentage of rotten fruit in each group was measured at different time periods after storage.
# Penicillium digitatum [2] = assay: Decay of lemons inoculated with Penicillium 10^4 spores/ml and dipped; type: in vivo, Penicillium digitatum on lemons; conditions: inoculated lemons dipped a day after inoculation, kept 6 days at 20° C.
# Experimental: Lemon fruit flavedo (exocarp) was taken and extracted overnight in dichloromethane, then exposed to sunlight for about 18 hours until the color of the dichloromethane extract turned brown. The flavedo was blended and filtered through a layer of Whatman paper. The extracted solution was evaporated to remove the dichloromethane and the dense liquor was further separated by chromatography with a silica 60 column using dichloromethane as a carrier. Two fractions of dichloromethane, one green and the other colorless, were obtained after chromatography. The crude active extract was isolated by evaporation of the green dichloromethane fraction. […] Effect of the compounds on pathogen development on the fruit was checked daily during storage.
# The antifungal activity of the products prepared in the two different routes was checked in the same method. […] Decay was evaluated at specific intervals during a period of 26 days.
# Lemons inoculated with Penicillium (10^4 spores/ml) were dipped in an aqueous solution comprising citral, a detergent (Tween 20), other essential oil components as well as a dichloromethane crude extract of lemon flavedo exposed to sunlight. Decay was evaluated at specific intervals during a period of 20 days.
# Pure limonene was exposed to sunlight for three hours. […]
# kumquat fruit = assay: Decay of uninoculated kumquat fruit after storage and shelf life simulation; type: in vivo; conditions: 11 days at 10° C. and shelf life at 20° C. for 6 days; limonene 5000 μL L^−1 exposed to sunlight for 3 hours in 25% ethanol + 5000 μL L^−1 TWEEN 20
# Experimental: Exposure to sunlight or irradiation of the dichloromethane or hexane extract of lemon flavedo should be conducted for 3 to 6 hours. The efficiency of the extract hydroperoxide formulation as a biocidal composition grows with longer periods of exposure of the fruit to the hydroperoxide solution. […] The effect of exposure of limonene to 3 hours of sunlight and its efficiency as preventing decay compared to no treatment (dipping in water) or treatment with an ethanol solution (25%) are summarized in Table 4 in a commercial like experiment with uninoculated fruit.
# Penicillium digitatum [3] = assay: Decay of Penicillium-inoculated grapefruit after 2-minute dip; type: in vivo, Penicillium digitatum on grapefruit; conditions: 25% Ethanol dip; three weeks after inoculation
# Text: Unblemished grapefruit were harvested from the orchard and on the same day sorted again in the laboratory to eliminate injured fruit. The grapefruit were washed with tap water and air-dried. Each fruit was then inoculated by piercing its flavedo tissue 1.5 mm deep with a tool incorporating three needles at three different sites. Prior to each piercing, the tool was immersed in a spore suspension of Penicillium digitatum (10^6 spores/ml).
compound,measurement,setting,value
"CCO [Ethanol 25%, Ethanol]",% of rotten fruit,[1]; 0.5 months of storage at 15° C.,0%
same,% of rotten fruit,[1]; 1 month of storage at 15° C.,4%
same,% of rotten fruit,[1]; 2 months of storage at 15° C.,14%
same,% of rotten fruit,[1]; 3 months of storage at 15° C.,20%
same,% of rotten fruit,[1]; 4 months of storage at 15° C.,23%
same,% Decay,Penicillium digitatum [2],30%
same,"Decay of kumquat fruit, End of storage",kumquat fruit,7.9 ab
same,fruit rotten,Penicillium digitatum [3],more than 50%

# Source: patent US7465469B2, “Microbiocidal formulation comprising essentials oils or their derivatives” (State of Israel, Ministry of Agriculture & Rural …, priority 2001, dated 2008)
